Laboratory results reported in US4812590A, “Carbamates of 4-hydroxyanisole as prodrugs for chemotherapy of melanoma” (priority 1987, dated 1989).
Read-outs that look alike come from different tables or passages of the source.

Columns and labels:
[1] = Determination of carbamate half-lives: conversion of carbamate to 4-methoxyphenol in phosphate buffer, HPLC; type: physicochemical
Protocol: […] The resulting solution was heated at 37° while 20 μL samples were removed at intervals and injected directly into the HPLC injection port.
Unreacted carbamate and 4-methoxyphenol concentrations were determined by HPLC analysis with a C-18 reverse phase column using a mobile phase of 87.5% pH 2.4 phosphoric acid and 12.5% acetonitrile. The UV detector was set at 220 nm. The half-life (t1/2) is the time required for 50% conversion of carbamate to 4-methoxyphenol. Compounds (1), (2) and (3) are the preferred prodrugs for the treatment of melanomas.

[2] = Partition coefficient, octanol/pH 7.4 buffer; type: physicochemical
pKa = type: physicochemical
[3] = system: melanoma cells that contain tyrosinase; conditions: Riley 1985; cited from earlier work
melanoma = conditions: cited from earlier work
[4] = after intra-arterial injection; cited from earlier work
DNA synthesis = conditions: cited from earlier work
[5] = pH 7.4, pH 7.4 phosphate buffer, 37° (Table I), read-out: t1/2 (time required for 50% conversion of carbamate to 4-methoxyphenol)
[6] = pH 6.8, pH 6.8, 37° (Table I), read-out: t1/2

COc1ccc(OC(=O)NCCCN)cc1.Cl [(5), N-[3-Aminopropyl]carbamic acid 4-methoxyphenyl ester hydrochloride]
half-life [1, 5]: 12 h

CNCCN(C)C(=O)Oc1ccc(OC)cc1 [Compound IV]
half-life ([1]; pH 7.4, phosphate buffer, pH 7.4 (37°), read-out: half-life of release of 4-hydroxyanisole): 0.6 h | logD [2]: -1.02 | pKa (pKa): 8.88

CCNCCN(CC)C(=O)Oc1ccc(OC)cc1
half-life [1, 5]: 2.38 h

COc1ccc(OC(=O)NCCN)cc1 [(6)]
half-life [1, 5]: 12.1 h

CNCCNC(=O)Oc1ccc(OC)cc1 [(7)]
half-life [1, 5]: 12.4 h

COc1ccc(OC(=O)N(C)CCN(C)C)cc1
half-life [1, 6]: 3.23 h | half-life [1, 5]: 0.9 h

COc1ccc(O)cc1 [4-Hydroxyanisole, 4-hydroxyanisole]
oxidation by tyrosinase and toxicity to melanoma cells [3]: oxidized by tyrosinase to highly cytotoxic products and consequently is preferentially toxic to those melanoma cells that contain the enzyme | results of subsequent studies (melanoma; intra-arterial infusion): more promising results | results of early clinical trials (melanoma; intralesional injection or i.v. infusion): disappointing | half-life in blood [4]: 9 min | effect on DNA synthesis (DNA synthesis): inhibits DNA synthesis

CNCCCN(C)C(=O)Oc1ccc(OC)cc1
half-life [1, 5]: 24.1 h

COc1ccc(OC(=O)N(C)CCN)cc1
half-life [1, 5]: 7.7 h

CNCCN(C)C(=O)Oc1ccc(OC)cc1 [drawing 8]
half-life [1, 6]: 2.33 h | half-life [1, 5]: 0.605 h
